Test results: ChEMBL document CHEMBL1629601, “In vitro susceptibility of field isolates of Leishmania donovani to Miltefosine and amphotericin B: correlation with sodium antimony gluconate susceptibility and implications for treatment in areas of endemicity” (2009)

Tests used:
Format in all cases: functional
Leishmania donovani [1] = test: Antimicrobial activity against Leishmania donovani K516 amastigote
Leishmania donovani [2] = test: Antimicrobial activity against Leishmania donovani K131 amastigote
Leishmania donovani [3] = test: Antimicrobial activity against Leishmania donovani K80 amastigote
Leishmania donovani [4] = test: Antimicrobial activity against Leishmania donovani K439 amastigote
Leishmania donovani [5] = test: Antimicrobial activity against Leishmania donovani K417 amastigote
Leishmania donovani [6] = test: Antimicrobial activity against Leishmania donovani K111 amastigote
Leishmania donovani [7] = test: Antimicrobial activity against Leishmania donovani K135 amastigote
Leishmania donovani [8] = test: Antimicrobial activity against Leishmania donovani K132 amastigote
Leishmania donovani [9] = test: Antimicrobial activity against Leishmania donovani K251 amastigote
Leishmania donovani [10] = test: Antimicrobial activity against Leishmania donovani K509 amastigote
Leishmania donovani [11] = test: Antimicrobial activity against Leishmania donovani K481 amastigote
Leishmania donovani [12] = test: Antimicrobial activity against Leishmania donovani K216 amastigote
Leishmania donovani [13] = test: Antimicrobial activity against Leishmania donovani K149 amastigote
Leishmania donovani [14] = test: Antimicrobial activity against Leishmania donovani K192 amastigote
Leishmania donovani [15] = test: Antimicrobial activity against Leishmania donovani K133 amastigote
Leishmania donovani [16] = test: Antimicrobial activity against Leishmania donovani K429 amastigote
Leishmania donovani [17] = test: Antimicrobial activity against Leishmania donovani K59 amastigote
Leishmania donovani [18] = test: Antimicrobial activity against Leishmania donovani K435 amastigote
Leishmania donovani [19] = test: Antimicrobial activity against Leishmania donovani K498 amastigote
Leishmania donovani [20] = test: Antimicrobial activity against Leishmania donovani LdAG83 amastigote

D-gluconic acid 2,4:2',4'-O-[oxybis(oxidostibylidyne)]bis-trisodium salt nonahydrate
ED50 (Leishmania donovani [1]): 16.5 µg/mL | ED50 (Leishmania donovani [2]): 19.4 µg/mL | ED50 (Leishmania donovani [3]): 10.4 µg/mL | ED50 (Leishmania donovani [4]): 12.9 µg/mL | ED50 (Leishmania donovani [5]): 14.7 µg/mL | ED50 (Leishmania donovani [6]): 5.63 µg/mL | ED50 (Leishmania donovani [7]): 4.22 µg/mL | ED50 (Leishmania donovani [8]): 3.95 µg/mL | ED50 (Leishmania donovani [9]): 11.8 µg/mL | ED50 (Leishmania donovani [10]): 16.8 µg/mL | ED50 (Leishmania donovani [11]): 17.5 µg/mL | ED50 (Leishmania donovani [12]): 2.14 µg/mL | ED50 (Leishmania donovani [13]): 15.7 µg/mL | ED50 (Leishmania donovani [14]): 20.3 µg/mL | ED50 (Leishmania donovani [15]): 3.45 µg/mL | ED50 (Leishmania donovani [16]): 13.8 µg/mL | ED50 (Leishmania donovani [17]): 14.7 µg/mL | ED50 (Leishmania donovani [18]): 11.8 µg/mL | ED50 (Leishmania donovani [19]): 15.8 µg/mL | ED50 (Leishmania donovani [20]): 2.06 µg/mL
